Patent publication US10750743B2, “Pyridazinone herbicides” (E.I. DU PONT DE NEMOURS AND COMPANY, priority 2015, dated 2020)

How the values were obtained:
Type in all cases: in vivo
rice (Oryza sativa) = experiment: Test B flooded paddy test, visual rating; conditions: Flood, 250 g ai/ha, applied to paddy water, rated after 13 to 15 d
Experimental: (§1) Plant species in the flooded paddy test selected from rice (Oryza sativa), sedge, umbrella (small-flower umbrella sedge, Cyperus difformis), ducksalad (Heteranthera limosa), and barnyardgrass (Echinochloa crus-galli) were grown to the 2-leaf stage for testing. At time of treatment, test pots were flooded to 3 cm above the soil surface, treated by application of test compounds directly to the paddy water, and then maintained at that water depth for the duration of the test. Treated plants and controls were maintained in a greenhouse for 13 to 15 d, after which time all species were compared to controls and visually evaluated. Plant response ratings, summarized in Table B, are based on a scale of 0 to 100 where 0 is no effect and 100 is complete control. A dash (-) response means no test result.

[1] = test system: barnyardgrass (Echinochloa crus-galli); experiment: Test B flooded paddy test, visual rating; conditions: Flood, 250 g ai/ha, applied to paddy water, rated after 13 to 15 d
Experimental: as §1

[2] = test system: ducksalad (Heteranthera limosa); experiment: Test B flooded paddy test, visual rating; conditions: Flood, 250 g ai/ha, applied to paddy water, rated after 13 to 15 d
Experimental: as §1

[3] = test system: sedge, umbrella (small-flower umbrella sedge, Cyperus difformis); experiment: Test B flooded paddy test, visual rating; conditions: Flood, 250 g ai/ha, applied to paddy water, rated after 13 to 15 d
Experimental: as §1

[4] = test system: blackgrass (Alopecurus myosuroides); experiment: Test A postemergence application, visual injury rating; conditions: 0 to 100 scale, 0 no effect, 100 complete control
How it was run: (§2)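 Seeds sown in a loam soil–sand blend received a directed preemergence soil spray of test chemical in a non-phytotoxic solvent mixture with surfactant. Postemergence plants were sprayed at 2 to 10 cm, one- to two-leaf stage. After approximately 10 d in greenhouse, injury was visually rated 0 (no effect) to 100 (complete control) against untreated controls.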

[5] = test system: ryegrass, It. (Italian ryegrass, Lolium multiflorum); experiment: as above; conditions: 0 to 100 scale, 0 no effect, 100 complete control
How it was run: as §2

[6] = test system: ragweed (common ragweed, Ambrosia elatior); experiment: as above; conditions: 0 to 100 scale, 0 no effect, 100 complete control
How it was run: as §2

kochia (Kochia scoparia) [7] = experiment: as above; conditions: 0 to 100 scale, 0 no effect, 100 complete control
How it was run: as §2

[8] = test system: pigweed (Amaranthus retroflexus); experiment: as above; conditions: 0 to 100 scale, 0 no effect, 100 complete control
How it was run: as §2

[9] = test system: foxtail, giant (giant foxtail, Setaria faberii); experiment: as above; conditions: 0 to 100 scale, 0 no effect, 100 complete control
How it was run: as §2

corn (Zea mays) = experiment: as above; conditions: 0 to 100 scale, 0 no effect, 100 complete control
How it was run: as §2

[10] = test system: galium (catchweed bedstraw, Galium aparine); experiment: as above; conditions: 0 to 100 scale, 0 no effect, 100 complete control
How it was run: as §2

[11] = test system: wheat (Triticum aestivum); experiment: as above; conditions: 0 to 100 scale, 0 no effect, 100 complete control
How it was run: as §2

[12] = test system: barnyardgrass (Echinochloa crus-galli); experiment: as above; conditions: 0 to 100 scale, 0 no effect, 100 complete control
How it was run: as §2

[13] = test system: ryegrass, It. (Italian ryegrass, Lolium multiflorum); experiment: Test A preemergence, directed soil spray, visual injury rating; conditions: 0 is no effect, 100 is complete control
How it was run: as §2

[14] = test system: ragweed (common ragweed, Ambrosia elatior); experiment: as above; conditions: 0 is no effect, 100 is complete control
How it was run: as §2

kochia (Kochia scoparia) [15] = experiment: as above; conditions: 0 is no effect, 100 is complete control
How it was run: as §2

[16] = test system: pigweed (Amaranthus retroflexus); experiment: as above; conditions: 0 is no effect, 100 is complete control
How it was run: as §2

[17] = test system: foxtail, giant (giant foxtail, Setaria faberii); experiment: as above; conditions: 0 is no effect, 100 is complete control
How it was run: as §2

[18] = test system: barnyardgrass (Echinochloa crus-galli); experiment: as above; conditions: 0 is no effect, 100 is complete control
How it was run: as §2

| SMILES | Rice plant response rating (0 to 100 scale, 0 is no effect, 100 is complete control) (rice (Oryza sativa)) | Barnyardgrass plant response rating (0 to 100 scale, 0 is no effect, 100 is complete control) [1] | Ducksalad plant response rating (0 to 100 scale, 0 is no effect, 100 is complete control) [2] | Sedge, Umbrella plant response rating (0 to 100 scale, 0 is no effect, 100 is complete control) [3] | Blackgrass plant response rating ([4]; 125 g ai/ha) | Ryegrass, It. plant response rating ([5]; 125 g ai/ha) | Ragweed plant response rating ([6]; 125 g ai/ha) | Kochia plant response rating (kochia (Kochia scoparia) [7]; 125 g ai/ha) | Pigweed plant response rating ([8]; 125 g ai/ha) | Foxtail, Giant plant response rating ([9]; 125 g ai/ha) | Corn plant response rating (corn (Zea mays); 125 g ai/ha) | Galium plant response rating ([10]; 125 g ai/ha) | Wheat plant response rating ([11]; 125 g ai/ha) | Barnyardgrass plant response rating ([12]; 125 g ai/ha) | Plant response rating (0 to 100 scale), Ryegrass, It. ([13]; 125 g ai/ha) | Plant response rating (0 to 100 scale), Ragweed ([14]; 125 g ai/ha) | Plant response rating (0 to 100 scale), Kochia (kochia (Kochia scoparia) [15]; 125 g ai/ha) | Plant response rating (0 to 100 scale), Pigweed ([16]; 125 g ai/ha) | Plant response rating (0 to 100 scale), Foxtail, Giant ([17]; 125 g ai/ha) | Plant response rating (0 to 100 scale), Barnyardgrass ([18]; 125 g ai/ha) | further results |
| --- | --- | --- | --- | --- | --- | --- | --- | --- | --- | --- | --- | --- | --- | --- | --- | --- | --- | --- | --- | --- | --- |
| CCC(=O)Oc1c(C)nn(C)c(=O)c1-c1cccc2cc(C)oc12 [Compound 26] | 0 | 0 | 0 | 0 | 20 | 80 | 30 | 20 | 40 | 30 | 0 | 90 | 0 | 10 | 80 | 10 | 30 | 10 | 0 | 0 | Blackgrass plant response rating ([4]; 31 g ai/ha): 0; Ryegrass, It. plant response rating ([5]; 31 g ai/ha): 50; Ragweed plant response rating ([6]; 31 g ai/ha): 0; Kochia plant response rating (kochia (Kochia scoparia) [7]; 31 g ai/ha): 20; Pigweed plant response rating ([8]; 31 g ai/ha): 30; Foxtail, Giant plant response rating ([9]; 31 g ai/ha): 0; Corn plant response rating (corn (Zea mays); 31 g ai/ha): 0; Galium plant response rating ([10]; 31 g ai/ha): 70; Wheat plant response rating ([11]; 31 g ai/ha): 0; Barnyardgrass plant response rating ([12]; 31 g ai/ha): 0; Plant response rating (0 to 100 scale), Ryegrass, It. ([13]; 31 g ai/ha): 10; Plant response rating (0 to 100 scale), Ragweed ([14]; 31 g ai/ha): 0; Plant response rating (0 to 100 scale), Kochia (kochia (Kochia scoparia) [15]; 31 g ai/ha): 0; Plant response rating (0 to 100 scale), Pigweed ([16]; 31 g ai/ha): 0; Plant response rating (0 to 100 scale), Foxtail, Giant ([17]; 31 g ai/ha): 0; Plant response rating (0 to 100 scale), Barnyardgrass ([18]; 31 g ai/ha): 0 |
| Cc1cc2c(-c3c(OC(=O)c4ccccc4)c(C)nn(C)c3=O)ccc(Cl)c2o1 [Compound 44] | 0 | 0 | 0 | 0 | 0 | 0 | 0 | 0 | 0 | 0 | 0 | 0 | 0 | 0 | 20 | 0 | 0 | 0 | 0 | 0 | Blackgrass plant response rating ([4]; 31 g ai/ha): 0; Ryegrass, It. plant response rating ([5]; 31 g ai/ha): 0; Ragweed plant response rating ([6]; 31 g ai/ha): 0; Kochia plant response rating (kochia (Kochia scoparia) [7]; 31 g ai/ha): 0; Pigweed plant response rating ([8]; 31 g ai/ha): 0; Foxtail, Giant plant response rating ([9]; 31 g ai/ha): 0; Corn plant response rating (corn (Zea mays); 31 g ai/ha): 0; Galium plant response rating ([10]; 31 g ai/ha): 0; Wheat plant response rating ([11]; 31 g ai/ha): 0; Barnyardgrass plant response rating ([12]; 31 g ai/ha): 0; Plant response rating (0 to 100 scale), Ryegrass, It. ([13]; 31 g ai/ha): 0; Plant response rating (0 to 100 scale), Ragweed ([14]; 31 g ai/ha): 0; Plant response rating (0 to 100 scale), Kochia (kochia (Kochia scoparia) [15]; 31 g ai/ha): 0; Plant response rating (0 to 100 scale), Pigweed ([16]; 31 g ai/ha): 0; Plant response rating (0 to 100 scale), Foxtail, Giant ([17]; 31 g ai/ha): 0; Plant response rating (0 to 100 scale), Barnyardgrass ([18]; 31 g ai/ha): 0 |
| Cc1cc2c(Cl)ccc(-c3c(OC(=O)c4ccccc4)c(C)nn(C)c3=O)c2o1 [Compound 39] | 0 | 0 | 50 | 0 | 20 | 30 | 10 | 0 | 0 | 10 | 0 | 90 | 0 | 10 | 50 | 0 | 0 | 0 | 0 | 0 | Blackgrass plant response rating ([4]; 31 g ai/ha): 0; Ryegrass, It. plant response rating ([5]; 31 g ai/ha): 20; Ragweed plant response rating ([6]; 31 g ai/ha): 0; Kochia plant response rating (kochia (Kochia scoparia) [7]; 31 g ai/ha): 0; Pigweed plant response rating ([8]; 31 g ai/ha): 0; Foxtail, Giant plant response rating ([9]; 31 g ai/ha): 0; Corn plant response rating (corn (Zea mays); 31 g ai/ha): 0; Galium plant response rating ([10]; 31 g ai/ha): 30; Wheat plant response rating ([11]; 31 g ai/ha): 0; Barnyardgrass plant response rating ([12]; 31 g ai/ha): 0; Plant response rating (0 to 100 scale), Ryegrass, It. ([13]; 31 g ai/ha): 10; Plant response rating (0 to 100 scale), Ragweed ([14]; 31 g ai/ha): 0; Plant response rating (0 to 100 scale), Kochia (kochia (Kochia scoparia) [15]; 31 g ai/ha): 0; Plant response rating (0 to 100 scale), Pigweed ([16]; 31 g ai/ha): 0; Plant response rating (0 to 100 scale), Foxtail, Giant ([17]; 31 g ai/ha): 0; Plant response rating (0 to 100 scale), Barnyardgrass ([18]; 31 g ai/ha): 0 |
| CCOC(=O)Oc1c(C)nn(C)c(=O)c1-c1c(C)sc2ncccc12 [Compound 24] | 0 | 0 | 0 | 0 | 0 | 0 | 0 | 0 | 0 | 0 | 0 | 0 | 0 | 0 | 10 | 0 | 0 | 0 | 0 | 0 | Blackgrass plant response rating ([4]; 500 g ai/ha): 0; Ryegrass, It. plant response rating ([5]; 500 g ai/ha): 20; Ragweed plant response rating ([6]; 500 g ai/ha): 0; Kochia plant response rating (kochia (Kochia scoparia) [7]; 500 g ai/ha): 0; Pigweed plant response rating ([8]; 500 g ai/ha): 10; Foxtail, Giant plant response rating ([9]; 500 g ai/ha): 0; Corn plant response rating (corn (Zea mays); 500 g ai/ha): 10; Galium plant response rating ([10]; 500 g ai/ha): 0; Wheat plant response rating ([11]; 500 g ai/ha): 0; Barnyardgrass plant response rating ([12]; 500 g ai/ha): 0; Plant response rating (0 to 100 scale), Ryegrass, It. ([13]; 500 g ai/ha): 20; Plant response rating (0 to 100 scale), Ragweed ([14]; 500 g ai/ha): 0; Plant response rating (0 to 100 scale), Kochia (kochia (Kochia scoparia) [15]; 500 g ai/ha): 0; Plant response rating (0 to 100 scale), Pigweed ([16]; 500 g ai/ha): 0; Plant response rating (0 to 100 scale), Foxtail, Giant ([17]; 500 g ai/ha): 0; Plant response rating (0 to 100 scale), Barnyardgrass ([18]; 500 g ai/ha): 0 |
